# “Also recorded” adds a separate entry of the source.
# Assays:
# [1] = Stability study of Bortezomib stored under general storage conditions (sealed polymeric bag, 25° C. and 60% RH), purity by HPLC; assay type: physicochemical
# Description: (§1) HPLC measurements of Bortezomib samples for chemical purity were performed using Waters system, equipped with Waters symmetry shield RP-18, 250X4.6 mm ID, 5 μm, particle size and a UV detector operated on 270 nm. Analyses were performed using the following mobile phase, at flow rate of 1.0 ml/minute, run time 55 minutes. Mobile phase A: Mix 700 ml water, 300 ml Acetonitrile and 1 ml formic acid, filter and degas. Mobile phase B: Mix 800 ml Acetonitrile, 200 ml water and 1 ml formic acid, filter and degas. Elution: Gradient program
# [2] = Stability study of aqueous solution of Bortezomib in basic medium (pH ~10.5), purity by HPLC
# Description: A small quantity was taken from solution after 1 hours, 2 hours and 3 hours and the purity was checked by HPLC and compared to the original HPLC chromatogram of initial sample (immediately after adjusting the pH). The purity of each sample was obtained as % area by the HPLC chromatogram and compared to the initial purity value.
# as §1
# [3] = Stability study of Bortezomib in the exemplary storage system of the invention (two polybags with external desiccant), purity by HPLC; conditions: for Initial purity: % area by HPLC
# Description: Two different samples of Bortezomib were stored at a storage condition of 2-8° C. and 25° C., 60% relative humidity (RH) in a storage system (packed in one Polybags having a thickness about 0.10 mm followed by repacking in another polybag having thickness of about 0.10 mm and containing external desiccant). A small quantity was taken from each sample after 15 days, 1 month (30th day), 2 months (60th day) and 3 months (90th day) and the purity was checked by HPLC and compared to the original HPLC chromatogram of each sample (before starting the storage period). The chemical purity of each sample was obtained as % area by the HPLC chromatogram and compared to the initial purity value (before starting the storage period).
# as §1
# [4] = 7th day, general storage conditions
# [5] = 15th day, general storage conditions
# [6] = 30th day, general storage conditions
# [7] = initial, general storage conditions
# [8] = after 1 hour, aqueous solution, pH ~10.5, 25 to 35° C.
# [9] = after 2 hours, aqueous solution, pH ~10.5, 25 to 35° C.
# [10] = after 3 hours, aqueous solution, pH ~10.5, 25 to 35° C.
# [11] = initial, aqueous solution, pH ~10.5, 25 to 35° C.
# [12] = stored at 2-8° C. in packaging of the invention, sample from methanol/water (Form A)
# [13] = stored at 25° C. and 60% RH in packaging of the invention, sample from ethylacetate
smiles,measurement,setting,value
"CC(C)C[C@H](NC(=O)[C@H](Cc1ccccc1)NC(=O)c1cnccn1)B(O)O [Bortezomib, [(1R)-3-methyl-1-[[(2S)-1-oxo-3-phenyl-2-[(pyrazinylcarbonyl)amino]propyl]amino]butyl]boronic acid]",Impurity-a content on 7th day,[1]; [4],0.06%
same,Impurity-b (RR and SS diastereomers) content on 7th day,[1]; [4],0.33%
same,"Bortezomib purity by HPLC, Purity on 7th day","[1]; 7th day, general storage conditions, sample from ethylacetate",99.34%
same,Impurity-a content on 15th day,[1]; [5],0.08%
same,Impurity-b (RR and SS diastereomers) content on 15th day,[1]; [5],0.35%
same,"Bortezomib purity by HPLC, Purity on 15th day","[1]; 15th day, general storage conditions, sample from ethylacetate",98.92%
same,Impurity-a content on 30th day,[1]; [6],0.18%
same,Impurity-b (RR and SS diastereomers) content on 30th day,[1]; [6],0.39%
same,"Bortezomib purity by HPLC, Purity on 30th day","[1]; 30th day, general storage conditions, sample from ethylacetate",97.22%
same,"Impurity-a content, Initial",[1]; [7],0.06%
same,"Impurity-b (RR and SS diastereomers) content, Initial",[1]; [7],0.36%
same,"Bortezomib purity by HPLC, Initial purity","[1]; initial, general storage conditions, sample from ethylacetate",99.49%
same,Storage stability in words,"[1]; sealed polymeric bag without desiccants, normal temperature",unstable; also recorded: substantial degradation of product
same,"Chemical Purity by HPLC, After 1 hour",[2]; [8],98.24%
same,"Impurity-a content, After 1 hour",[2]; [8],0.8924%
same,"Impurity-b (RR and SS diastereomers) content, After 1 hour",[2]; [8],0.4005%
same,"Chemical Purity by HPLC, After 2 hour",[2]; [9],98.01%
same,"Impurity-a content, After 2 hour",[2]; [9],0.9587%
same,"Impurity-b (RR and SS diastereomers) content, After 2 hour",[2]; [9],0.4746%
same,"Chemical Purity by HPLC, After 3 hours",[2]; [10],97.77%
same,"Impurity-a content, After 3 hours",[2]; [10],1.0229%
same,"Impurity-b (RR and SS diastereomers) content, After 3 hours",[2]; [10],0.5418%
same,Stability in aqueous basic solution in words,[2]; aqueous solution maintained under stirring in a basic medium,decrease the purity; also recorded: purity of the compound decreased continually
same,"Chemical Purity by HPLC, Initial","[2]; initial (immediately after adjusting the pH), aqueous solution, pH ~10.5 (2N NaOH), 25 to 35° C.",98.61%
same,"Impurity-a content, Initial",[2]; [11],0.7899%
same,"Impurity-b (RR and SS diastereomers) content, Initial",[2]; [11],0.2991%
same,Purity on 15th day,[3]; [12],99.59%
same,Purity on 15th day,[3]; [13],99.56%
same,Purity on 30th day,[3]; [12],99.59%
same,Purity on 30th day,[3]; [13],99.60%
same,Purity on 60th day,[3]; [12],99.65%
same,Purity on 60th day,[3]; [13],99.63%
same,Purity on 90th day,[3]; [12],99.66%
same,Purity on 90th day,[3]; [13],99.54%
same,Initial purity,[3]; [12],99.60%
same,Initial purity,[3]; [13],99.58%
same,Storage stability in words,"[3]; packaging conditions of the invention, prolonged storage periods",can be stabilized while retaining its purity content over prolonged storage periods

# From US20100226597A1, “BORTEZOMIB AND PROCESS FOR PRODUCING SAME” (DR. REDDY'S LABORATORIES LIMITED, priority 2007, published 2010)
